Results taken from patent publication US6472348B1, “Pyridone derivatives and herbicides” (Kumiai Chemical Industry Co., Ltd., priority 1996, dated 2002).

Assays:
corn (Ze) = experiment: Test Example 11: crop plant selectivity by upland field foliage treatment (corn), phytotoxicity; conditions: dose 1.6 g ai/10a
How it was run: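 Corn and the weed species were sown together in sand-filled pots and grown in a greenhouse for 2 weeks before foliar treatment. Herbicidal effect was scored on day 14 after treatment against a graded standard scale, with corn phytotoxicity scored alongside.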

[1] = test system: common lambsquarters (Ch); experiment: Test Example 4: crop plant selectivity by upland field soil treatment (cotton), herbicidal effects; type: in vivo; set-up: scale not given here; conditions: evaluated 21st day after application
How it was run: (§1)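 Cotton and weeds (incl. China jute, pale smartweed, slender amaranth) sown in sand-filled pots and covered with soil, then soil-treated. Grown in greenhouse; herbicidal effect and cotton phytotoxicity scored on day 21 after application against a rating standard.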

China jute (Ab) [2] = experiment: as above; type: in vivo; set-up: scale not given here; conditions: evaluated 21st day after application
How it was run: as §1

pale smartweed (Po) [3] = experiment: as above; type: in vivo; set-up: scale not given here; conditions: evaluated 21st day after application
How it was run: as §1

[4] = test system: common lambsquarters (Ch); experiment: Test Example 7: crop plant selectivity by upland field soil treatment (corn), herbicidal effects; type: in vivo; set-up: scale not given here; conditions: 21st day after application
How it was run: (§2)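 Sand-filled pot; corn plus weeds sown, soil-covered. Post-application greenhouse culture. Herbicidal effect/phytotoxicity rated day 21 per standard scale.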

green foxtail (Se) = experiment: as above; type: in vivo; set-up: scale not given here; conditions: 21st day after application
How it was run: as §2

China jute (Ab) [5] = experiment: as above; type: in vivo; set-up: scale not given here; conditions: 21st day after application
How it was run: as §2

pale smartweed (Po) [6] = experiment: as above; type: in vivo; set-up: scale not given here; conditions: 21st day after application
How it was run: as §2

slender amaranth (Am) = experiment: as above; type: in vivo; set-up: scale not given here; conditions: 21st day after application
How it was run: as §2

[7] = upland field foliage treatment, 14th day after treatment

Compound	Phytotoxicity Ze (corn (Ze); [7])	Herbicidal effects Ch ([1]; dose 6.3 g ai/10 a)	Herbicidal effects Ab (China jute (Ab) [2]; dose 6.3 g ai/10 a)	Herbicidal effects Po (pale smartweed (Po) [3]; dose 6.3 g ai/10 a)	Herbicidal effects Ch ([4]; dose 6.3 g ai/10a)	Herbicidal effects Se (green foxtail (Se); dose 6.3 g ai/10a)	Herbicidal effects Ab (China jute (Ab) [5]; dose 6.3 g ai/10a)	Herbicidal effects Po (pale smartweed (Po) [6]; dose 6.3 g ai/10a)	Herbicidal effects Am (slender amaranth (Am); dose 6.3 g ai/10a)	Phytotoxicity Ze (corn (Ze); corn, foliage treatment, evaluated on 14th day after treatment, index per Table 47)	Herbicidal effects Ch ([1]; dose 1.6 g ai/10 a)	Herbicidal effects Ab (China jute (Ab) [2]; dose 1.6 g ai/10 a)	Herbicidal effects Po (pale smartweed (Po) [3]; dose 1.6 g ai/10 a)	Herbicidal effects Ch ([4]; dose 1.6 g ai/10a)	Herbicidal effects Se (green foxtail (Se); dose 1.6 g ai/10a)	Herbicidal effects Ab (China jute (Ab) [5]; dose 1.6 g ai/10a)	Herbicidal effects Po (pale smartweed (Po) [6]; dose 1.6 g ai/10a)	Herbicidal effects Am (slender amaranth (Am); dose 1.6 g ai/10a)
C=CCN1C(=O)COc2cc(Cl)c(-c3ccc(C(F)(F)F)n(C)c3=O)cc21 [Compound 2-26]	2	5	5	5	5	5	5	5	5	–	–	–	–	–	–	–	–	–
CCCc1cc2c(-c3ccc(C(F)(F)F)n(C)c3=O)c(F)cc(Cl)c2o1 [Compound 4-3]	2	5	5	5	5	5	5	5	5	–	–	–	–	–	–	–	–	–
CCc1cc2c(Cl)cc(F)c(-c3ccc(C(F)(F)F)n(C)c3=O)c2o1 [Compound 5-2]	–	5	5	5	5	5	5	5	5	2	–	–	–	–	–	–	–	–
CON=Cc1cc(-c2ccc(C(F)(F)F)n(C)c2=O)c(F)cc1Cl [Compound No. 1-72, 5-(1-methyl-6-trifluoromethyl-2(1H)-pyridon-3-yl)-2-chloro-4-fluorobenzaldehydeoxime-O-methyl ether]	2	5	5	5	–	–	–	–	–	–	5	5	5	5	5	5	5	5
Cn1c(C(F)(F)F)ccc(-c2cc(C#N)c(Cl)cc2F)c1=O [Compound No. 1-119, 3-(4-chloro-5-cyano-2-fluorophenyl)-1-methyl-6-trifluoromethyl-2(1H)-pyridone]	2	5	5	5	5	5	5	5	5	–	–	–	–	–	–	–	–	–
CCCC(=O)c1cc(-c2ccc(C(F)(F)F)n(C)c2=O)c(F)cc1Cl [Compound No. 1-194, 3-[4-chloro-2-fluoro-5-(1-oxobutyl)phenyl]-1-methyl-6-trifluoromethyl-2(1H)-pyridone]	1	5	5	5	5	5	5	5	5	–	–	–	–	–	–	–	–	–
COCc1cc2c(-c3ccc(C(F)(F)F)n(C)c3=O)c(F)cc(Cl)c2o1 [Compound No. 4-4, 3-(7-chloro-5-fluoro-2-methoxymethylbenzofuran-4-yl)-1-methyl-6-trifluoromethyl-2-(1H)-pyridone]	2	5	5	5	5	5	5	5	5	–	5	5	5	5	5	5	5	5
Cn1c(C(F)(F)F)ccc(-c2c(F)cc(Cl)c3oc(CO)cc23)c1=O [Compound No. 4-5, 3-(7-chloro-5-fluoro-2-hydroxymethylbenzofuran-4-yl)-1-methyl-6-trifluoromethyl-2-(1H)-pyridone]	1	5	5	5	5	5	5	5	5	–	–	–	–	–	–	–	–	–
Cn1c(C(F)(F)F)ccc(-c2c(F)cc(Cl)c3occc23)c1=O [Compound No. 4-28, 3-(7-chloro-5-fluorobenzofuran-4-yl)-1-methyl-6-trifluoromethyl-2-(1H)-pyridone]	2	5	5	5	–	–	–	–	–	–	5	5	5	5	5	5	5	5
